Assay results from patent US11008314B2, “Compounds and methods for modulating interleukin-2-inducible t-cell kinase” (CORVUS PHARMACEUTICALS, INC., priority 2016, dated 2021).

What was measured:
Format in all cases: biochemical
ITK = ITK (Homo sapiens (Human), UniProt Q08881); assay: IC50 against ITK
JAK3 = JAK3 (Homo sapiens (Human), UniProt P52333); assay: IC50 against JAK3
BTK = BTK (Homo sapiens (Human), UniProt Q06187); assay: IC50 against BTK
TXK = TXK (Homo sapiens (Human), UniProt P42681); assay: IC50 against TXK; settings: for TXK/ITK: ratio of TXK IC50 to ITK IC50
TXK, sequence (P42681 whole entry, species assumed): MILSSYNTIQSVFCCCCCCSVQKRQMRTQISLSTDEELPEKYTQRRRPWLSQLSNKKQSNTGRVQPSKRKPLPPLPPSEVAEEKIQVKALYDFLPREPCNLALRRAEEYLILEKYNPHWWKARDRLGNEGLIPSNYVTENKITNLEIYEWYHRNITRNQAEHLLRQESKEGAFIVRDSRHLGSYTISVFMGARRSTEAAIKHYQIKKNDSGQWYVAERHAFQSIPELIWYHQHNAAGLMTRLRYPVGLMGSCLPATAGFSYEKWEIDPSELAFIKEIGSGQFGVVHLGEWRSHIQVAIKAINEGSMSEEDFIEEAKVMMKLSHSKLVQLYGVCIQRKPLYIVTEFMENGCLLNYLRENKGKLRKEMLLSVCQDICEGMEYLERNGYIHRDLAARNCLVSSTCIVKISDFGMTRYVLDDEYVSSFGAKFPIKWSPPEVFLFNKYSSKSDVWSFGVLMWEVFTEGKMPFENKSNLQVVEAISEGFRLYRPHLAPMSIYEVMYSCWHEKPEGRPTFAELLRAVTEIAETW

JAK3, sequence (P52333 whole entry, species assumed): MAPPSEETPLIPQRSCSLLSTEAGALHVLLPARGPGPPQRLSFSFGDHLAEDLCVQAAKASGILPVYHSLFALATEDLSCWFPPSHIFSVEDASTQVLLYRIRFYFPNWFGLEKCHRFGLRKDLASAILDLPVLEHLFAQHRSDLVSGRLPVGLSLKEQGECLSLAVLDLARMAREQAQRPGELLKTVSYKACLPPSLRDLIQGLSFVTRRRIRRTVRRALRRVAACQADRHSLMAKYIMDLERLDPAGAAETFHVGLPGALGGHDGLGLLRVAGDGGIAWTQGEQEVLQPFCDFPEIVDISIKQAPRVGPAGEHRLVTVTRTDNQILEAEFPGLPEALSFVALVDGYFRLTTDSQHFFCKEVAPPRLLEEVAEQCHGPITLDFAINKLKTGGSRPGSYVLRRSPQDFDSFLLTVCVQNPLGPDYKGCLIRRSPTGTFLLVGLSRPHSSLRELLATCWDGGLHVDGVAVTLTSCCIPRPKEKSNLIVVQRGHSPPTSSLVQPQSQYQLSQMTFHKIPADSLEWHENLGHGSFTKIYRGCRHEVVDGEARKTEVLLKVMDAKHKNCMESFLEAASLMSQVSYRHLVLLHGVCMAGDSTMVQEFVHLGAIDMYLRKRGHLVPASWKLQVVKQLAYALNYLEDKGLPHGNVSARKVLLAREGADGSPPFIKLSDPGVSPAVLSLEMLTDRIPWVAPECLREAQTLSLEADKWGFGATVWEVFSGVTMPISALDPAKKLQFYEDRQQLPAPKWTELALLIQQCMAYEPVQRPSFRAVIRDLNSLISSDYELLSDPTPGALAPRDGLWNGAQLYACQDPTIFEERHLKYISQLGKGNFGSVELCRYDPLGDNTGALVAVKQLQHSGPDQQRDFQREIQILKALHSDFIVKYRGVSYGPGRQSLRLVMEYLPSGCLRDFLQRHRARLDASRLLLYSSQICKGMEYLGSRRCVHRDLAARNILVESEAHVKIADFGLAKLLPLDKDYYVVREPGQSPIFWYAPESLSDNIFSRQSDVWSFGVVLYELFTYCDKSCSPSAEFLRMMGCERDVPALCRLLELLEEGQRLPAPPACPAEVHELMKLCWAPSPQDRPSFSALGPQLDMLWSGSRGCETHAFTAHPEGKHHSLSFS
ITK, sequence (Q08881 whole entry): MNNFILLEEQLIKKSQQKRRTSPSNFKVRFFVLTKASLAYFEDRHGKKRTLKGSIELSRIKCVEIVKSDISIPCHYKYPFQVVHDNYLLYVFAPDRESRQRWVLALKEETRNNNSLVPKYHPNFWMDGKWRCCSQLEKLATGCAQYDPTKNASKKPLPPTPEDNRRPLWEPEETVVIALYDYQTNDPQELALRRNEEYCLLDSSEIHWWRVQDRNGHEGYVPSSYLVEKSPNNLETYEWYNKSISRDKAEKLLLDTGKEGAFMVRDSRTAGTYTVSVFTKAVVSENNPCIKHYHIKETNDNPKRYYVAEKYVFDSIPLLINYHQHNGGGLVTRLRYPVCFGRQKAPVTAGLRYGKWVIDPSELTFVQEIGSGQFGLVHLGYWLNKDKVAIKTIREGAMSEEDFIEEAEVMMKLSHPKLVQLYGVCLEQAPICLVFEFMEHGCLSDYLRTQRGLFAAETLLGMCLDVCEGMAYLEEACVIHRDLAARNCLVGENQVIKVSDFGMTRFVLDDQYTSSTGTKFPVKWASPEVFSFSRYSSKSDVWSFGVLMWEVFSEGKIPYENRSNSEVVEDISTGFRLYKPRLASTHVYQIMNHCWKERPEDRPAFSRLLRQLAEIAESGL
BTK, sequence (Q06187 whole entry, species assumed): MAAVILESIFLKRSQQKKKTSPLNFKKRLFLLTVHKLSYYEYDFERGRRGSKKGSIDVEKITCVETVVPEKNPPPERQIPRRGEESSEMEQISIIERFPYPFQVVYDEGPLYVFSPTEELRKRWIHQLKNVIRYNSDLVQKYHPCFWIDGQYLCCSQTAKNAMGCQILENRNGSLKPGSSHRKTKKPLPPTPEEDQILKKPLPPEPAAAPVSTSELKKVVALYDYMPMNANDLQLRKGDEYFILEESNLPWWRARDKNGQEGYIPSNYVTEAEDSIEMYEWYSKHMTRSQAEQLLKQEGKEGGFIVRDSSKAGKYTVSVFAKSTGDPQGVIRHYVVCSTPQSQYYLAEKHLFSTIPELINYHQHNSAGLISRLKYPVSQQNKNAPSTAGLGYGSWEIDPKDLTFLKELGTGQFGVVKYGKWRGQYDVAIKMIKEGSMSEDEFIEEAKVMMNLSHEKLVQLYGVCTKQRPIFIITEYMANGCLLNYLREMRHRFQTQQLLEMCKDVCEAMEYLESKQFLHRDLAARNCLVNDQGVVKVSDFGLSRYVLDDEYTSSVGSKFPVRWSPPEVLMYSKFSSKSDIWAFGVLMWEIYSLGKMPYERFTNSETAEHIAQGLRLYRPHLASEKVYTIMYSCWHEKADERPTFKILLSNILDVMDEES

Compound | IC50 (ITK) [nM] | IC50 (JAK3) [nM] | IC50 (BTK) [nM] | IC50 (TXK) [nM] | TXK/ITK (TXK)
C=CC(=O)N1CC[C@H](N(C)C(=O)c2cc(Sc3cnc(NC(C)=O)s3)c(C)cc2OC)C1 [Compound 30] | 10 to 100 | 1000 to 10000 | 100 to 1000 | 10 to 100 | 3.101
C=CC(=O)N1CCN(C(=O)c2cc(Sc3cnc(NC(=O)C4CCCC4)s3)c(C)cc2OC)CC1 [Compound 31] | 10 to 100 | 1000 to 10000 | 1000 to 10000 | 100 to 1000 | 19.291
C=CC(=O)N1CCN(C(=O)c2cc(Sc3cnc(NC(=O)c4cccc(CN(C)C)c4)s3)c(C)cc2OC)C[C@H]1C [Compound 32] | < 10 | 1000 to 10000 | 100 to 1000 | 100 to 1000 | 81.114
C=CC(=O)N1CCN(C(=O)c2cc(Sc3cnc(NC(=O)c4ccc(CN(C)C)cc4)s3)c(C)cc2OC)CC1 [Compound 34] | < 10 | 100 to 1000 | 10 to 100 | 10 to 100 | 33.121
C=CC(=O)N1CCCN(C(=O)c2cc(Sc3cnc(NC(=O)CN(C)C)s3)c(C)cc2OC)CC1 [Compound 35] | 100 to 1000 | ≥ 10000 | ≥ 10000 | ≥ 10000 | 48.433
C=CC(=O)N1CCCN(C(=O)c2cc(Sc3cnc(NC(=O)C(C)C)s3)c(C)cc2OC)CC1 [Compound 36] | 10 to 100 | ≥ 10000 | 1000 to 10000 | 1000 to 10000 | 72.34
C=CC(=O)N1CCCN(C(=O)c2cc(Sc3cnc(NC(=O)C4CCN(C)CC4)s3)c(C)cc2OC)CC1 [Compound 37] | 100 to 1000 | ≥ 10000 | ≥ 10000 | ≥ 10000 | 46.119
CC#CC(=O)N1CCCN(C(=O)c2cc(Sc3cnc(NC(=O)c4cccc(CN(C)C)c4)s3)c(C)cc2OC)CC1 [Compound 38] | 10 to 100 | ≥ 10000 | 1000 to 10000 | 1000 to 10000 | 28.189
C=C(C)C(=O)N1CCCN(C(=O)c2cc(Sc3cnc(NC(=O)c4cccc(CN(C)C)c4)s3)c(C)cc2OC)CC1 [Compound 39] | 100 to 1000 | ≥ 10000 | ≥ 10000 | 1000 to 10000 | 1.5
C=CC(=O)N1CCN(C(=O)c2cc(Sc3cnc(NC(=O)c4ccc(N5CCN(C(=O)OC(C)(C)C)CC5)cc4)s3)c(C)cc2OC)CC1 [Compound 40] | < 10 | 100 to 1000 | 100 to 1000 | 10 to 100 | 14.491
C=CC(=O)N1CCN(C(=O)c2cc(Sc3cnc(NC(=O)c4ccc(N5CCN(C(=O)CCOCCOCCOCCOCCNC(=O)CCCCC6SCC7NC(=O)NC76)CC5)cc4)s3)c(C)cc2OC)CC1 (stereo not drawn) [Compound 41] | < 10 | 10 to 100 | 10 to 100 | 10 to 100 | 21.91
C=CC(=O)N1CCN(C(=O)c2cc(Sc3cnc(NC(=O)C4CC4)s3)c(C)cc2OC)C[C@H]1CC [Compound 42] | < 10 | 1000 to 10000 | 1000 to 10000 | 10 to 100 | 10.152
C=CC(=O)N1CCN(C(=O)c2cc(Sc3cnc(NC(=O)C4CC4)s3)c(C)cc2OC)C[C@H]1C#N [Compound 43] | < 10 | 10 to 100 | 10 to 100 | < 10 | 3.4821
C=CC(=O)N1CC2(CCN(C(=O)c3cc(Sc4cnc(NC(=O)C5CC5)s4)c(C)cc3OC)C2)C1 [Compound 45] | < 10 | 10 to 100 | 10 to 100 | < 10 | 4.1551
C=CC(=O)N1CCC2(C1)CN(C(=O)c1cc(Sc3cnc(NC(=O)C4CC4)s3)c(C)cc1OC)C2 [Compound 46] | < 10 | 100 to 1000 | 10 to 100 | < 10 | 3.4072
C=CC(=O)N1CCCN(C(=O)c2cc(Sc3cnc(NC(=O)CC)s3)c(C)cc2OC)C[C@H]1C [Compound 47] | 10 to 100 | ≥ 10000 | ≥ 10000 | ≥ 10000 | 181.42
C=CC(=O)N1CCCN(C(=O)c2cc(Sc3cnc(NC(=O)c4cccc(CN(C)C)c4)s3)c(C)cc2OC)C[C@H]1C [Compound 48] | 10 to 100 | ≥ 10000 | 1000 to 10000 | ≥ 10000 | 519.55
C=CC(=O)N1CCCN(C(=O)c2cc(Sc3cnc(NC(=O)c4cccc(CN5CCOCC5)c4)s3)c(C)cc2OC)CC1 [Compound 49] | 10 to 100 | 1000 to 10000 | 1000 to 10000 | 1000 to 10000 | 37.652
C=CC(=O)N1CCN(C(=O)c2cc(Sc3cnc(NC(=O)CC)s3)c(C)cc2OC)[C@@H](C)C1 [Compound 51] | < 10 | 1000 to 10000 | 100 to 1000 | 10 to 100 | 14.645
C=CC(=O)N1CCCN(C(=O)c2cc(Sc3cnc(NC(=O)C4CC4)s3)c(C)cc2OC)CCC1 [Compound 53] | < 10 | 1000 to 10000 | 100 to 1000 | 100 to 1000 | –
C=CC(=O)N1CCN(C(=O)c2cc(Sc3cnc(NC(=O)C4CC4)s3)c(C)cc2OC)CC[C@H]1C [Compound 54] | 10 to 100 | 1000 to 10000 | 1000 to 10000 | 10 to 100 | 0.804
C=CC(=O)N1CCN(C(=O)c2cc(Sc3cnc(NC(=O)C4CC4)s3)c(C)cc2OC)CC(F)C1 (stereo not drawn) [Compound 55] | < 10 | 10 to 100 | 10 to 100 | < 10 | 6.2416
C=CC(=O)N1CCCN(C(=O)c2cc(Sc3cnc(NC(=O)c4cccc(CN[C@H](C)C(C)(C)C)c4)s3)c(C)cc2OC)CC1 [Compound 56] | < 10 | 1000 to 10000 | 100 to 1000 | 1000 to 10000 | 168.17
C=CC(=O)N1CCCN(C(=O)c2cc(Sc3cnc(NC(=O)C(C)(C)C)s3)c(C)cc2OC)CC1 [Compound 57] | 100 to 1000 | ≥ 10000 | ≥ 10000 | ≥ 10000 | 15.564
C=CC(=O)N1CCCN(C(=O)c2cc(CSc3cnc(NC(=O)C4CC4)s3)cc(C)c2C)CC1 [Compound 58] | 1000 to 10000 | 1000 to 10000 | ≥ 10000 | 1000 to 10000 | 2.9749
C=CC(=O)N1CCCN(C(=O)c2cc(Sc3cnc(NC(=O)C4CC4)s3)c(C)cc2C)C[C@H]1C [Compound 59] | < 10 | 1000 to 10000 | 1000 to 10000 | 100 to 1000 | 166.05
C=CC(=O)N1CCCN(C(=O)c2cc(Sc3cnc(NC(=O)C4CC4)s3)c(C)cc2F)C[C@H]1C [Compound 60] | 10 to 100 | ≥ 10000 | ≥ 10000 | 1000 to 10000 | 21.785
C=CC(=O)N1CCCN(C(=O)c2cc(Sc3cnc(NC(=O)C4CC4)s3)c(C)cc2Cl)C[C@H]1C [Compound 61] | 10 to 100 | 1000 to 10000 | ≥ 10000 | 100 to 1000 | 50.716
C=CC(=O)N1CCCN(C(=O)c2cc(Sc3cnc(NC(=O)C4CC4)s3)c(Cl)cc2C)C[C@H]1C [Compound 62] | < 10 | 1000 to 10000 | 1000 to 10000 | 1000 to 10000 | 320.16
